What was measured:
[1] = test system: subjects; conditions: in vivo
Method: The study was a single center, single-blind study.
Once a subject had reached his/her first intolerable dose (FID-1), upward dose escalation was discontinued.
All other provisions of the protocol remained unchanged. Assessments were the same as those planned for the dose escalation day.
On each study day, subjects were followed up for up to 8 hours following drug administration for AEs, vital signs, ECGs. In addition, a laboratory panel was taken at screening and at the end of the study.

[2] = test system: animal behavior simulating symptoms of depression; conditions: high doses of pramipexole; cited from earlier work
[3] = test system: patients with a DSM-III-R diagnosis of major depression; conditions: pramipexole 5.0 mg group, cited from earlier work
[4] = test system: PD patients; conditions: 0.125 to 1.0 mg three times per day; 12 weeks; 296 PD patients; p=0.01 vs placebo; cited from earlier work

**Q.** With `CCCN[C@H]1CCc2nc(N)sc2C1` [Pramipexole, (S)-6-propylamino-4,5,6,7-tetrahydro-1,3-benzothiazole-2-amine] as the molecule, how does the dose limiting toxicity [1] read?
**A.** Its dose limiting toxicity is “gastro-intestinal adverse events”.

**Q.** What about the “activity in tests of animal behavior simulating symptoms of depression” value [2] of the same molecule?
**A.** The value was “active”.

**Q.** What about the “patients who completed the study” value ([3]; 8 weeks of treatment) of the same molecule?
**A.** Its value is 42.4%.

**Q.** And the “improvement at week 8” value ([3]; change from baseline, no p value because of high drop-out rate)?
**A.** Its value is −15.00.

**Q.** What about the patients reported nausea [3] of the same molecule?
**A.** The patients reported nausea was 76%.

**Q.** And the patients reported vomiting [3]?
**A.** Its patients reported vomiting is 39%.

**Q.** And the “patients discontinued treatment prematurely” value ([3]; mainly because of adverse events)?
**A.** Its value is 57.6%.

**Q.** And the “BDI scores decreased by an adjusted” value [4]?
**A.** Its value is 5.9 (SE 0.5).

Source: US11813248B2, “NK-1 antagonist compositions and methods for use in treating depression” (priority 2017, dated 2023)
